The values that follow come from patent US20250368634A1, “PHENYL AMIDE COMPOUNDS AND METHODS OF USE” (SCHRÖDINGER, INC., priority 2022, published 2025).

As a reminder, the IC50 is the concentration at which inhibition is half-maximal. Read a low IC50 as greater potency in that assay.

In one assay the target is SOS1-KRas (G12C) (Homo sapiens (Human), UniProt Q07889). Put plainly: SOS1-KRas (G12C) FRET Assay. The assay is classed as binding.
Chain of SOS1-KRas (G12C) (Q07889 564-1049, stated change not applied): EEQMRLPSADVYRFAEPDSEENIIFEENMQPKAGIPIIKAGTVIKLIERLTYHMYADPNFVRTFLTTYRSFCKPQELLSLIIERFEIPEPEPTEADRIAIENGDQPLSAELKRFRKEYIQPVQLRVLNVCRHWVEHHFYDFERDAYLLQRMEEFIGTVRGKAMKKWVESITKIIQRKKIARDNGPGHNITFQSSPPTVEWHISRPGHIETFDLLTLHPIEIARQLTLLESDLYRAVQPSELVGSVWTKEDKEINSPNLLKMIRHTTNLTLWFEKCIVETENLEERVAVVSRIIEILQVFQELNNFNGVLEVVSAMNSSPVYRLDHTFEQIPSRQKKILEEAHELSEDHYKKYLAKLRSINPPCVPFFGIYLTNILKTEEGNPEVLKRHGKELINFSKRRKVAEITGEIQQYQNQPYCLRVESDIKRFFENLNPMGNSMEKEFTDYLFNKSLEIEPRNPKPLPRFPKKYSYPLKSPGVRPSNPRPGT
Conditions: not given
Regarding `C[C@@H]1CC(F)(F)CN1c1cc(C(=O)N[C@H](C)c2cccc(C(F)F)c2F)c(NC2CCN(C)CC2)cc1F` (single isomer, unassigned) [Example 36], the IC50 was 97.5 nM. As for `C[C@@H](NC(=O)c1cc(N2CCOCC2)c(F)cc1NC1CCN(C)CC1)c1cccc(C(F)F)c1F` [Example 1, (R)—N-(1-(3-(difluoromethyl)-2-fluorophenyl)ethyl)-4-fluoro-2-((1-methylpiperidin-4-yl)amino)-5-morpholinobenzamide], the IC50 was found to be 20.2 nM.

`C[C@@H](NC(=O)c1cc(N2CC[C@@]23CCOC3)c(F)cc1NC1CCN(C)CC1)c1cccc(C(F)F)c1F` (single isomer, unassigned) [Example 34] had an IC50 of 112 nM. Same read-out and setting: to `C[C@@H](NC(=O)c1cc(N2C[C@@H]3C[C@H]2CO3)c(F)cc1NC1CCN(C)CC1)c1cccc(C(F)F)c1F` [Example 19, 5-((1S,4S)-2-oxa-5-azabicyclo[2.2.1]heptan-5-yl)-N—((R)-1-(3-(difluoromethyl)-2-fluorophenyl)ethyl)-4-fluoro-2-((1-methylpiperidin-4-yl)amino)benzamide] belongs 99.4 nM.

Staying with this assay, now noted: inhibition of SOS1:KRAS interaction; 0.5 nM His10-SOS1 (res. 564-1049), 2.5 nM GST-KRAS (res. 1-169, G12C); 2 hrs at RT.
Compound `Cc1c([C@@H](C)NC(=O)c2cc(C3CCOCC3)c(F)cc2NC2CCN(C)CC2)cccc1C(F)(F)F` [Example 21, (R)-4-fluoro-N-(1-(2-methyl-3-(trifluoromethyl)phenyl)ethyl)-2-((1-methylpiperidin-4-yl)amino)-5-(tetrahydro-2H-pyran-4-yl)benzamide] had an IC50 of 225 nM. In turn, `C[C@@H](NC(=O)c1cc(N2CCOCC2)c(F)cc1NC1(C)CN(C)C1)c1cccc(C(F)F)c1F` [Example 54, (R)—N-(1-(3-(difluoromethyl)-2-fluorophenyl)ethyl)-2-((1,3-dimethylazetidin-3-yl)amino)-4-fluoro-5-morpholinobenzamide] returned an IC50 of 74.1 nM. Same read-out and setting: to `CNC(=O)c1cc(C(=O)N[C@H](C)c2cccc(C(F)F)c2F)c(NC2CCN(C)CC2)cc1F` [Example 73, (R)—N1-(1-(3-(difluoromethyl)-2-fluorophenyl)ethyl)-4-fluoro-N3-methyl-6-((1-methylpiperidin-4-yl)amino)isophthalamide] belongs 148 nM; to `C[C@@H](NC(=O)c1cc(N2CCOCC2)c(C#N)cc1N[C@H]1CN2CCC1CC2)c1cccc(C(F)F)c1F` [Example 24, 4-cyano-N—((R)-1-(3-(difluoromethyl)-2-fluorophenyl)ethyl)-5-morpholino-2-(((R)-quinuclidin-3-yl)amino)benzamide], 22.7 nM. Regarding `C[C@@H](NC(=O)c1cc(-c2ccncc2)c(F)cc1NC1CCN(C)CC1)c1cccc(C(F)F)c1F` [Example 57, (R)—N-(1-(3-(difluoromethyl)-2-fluorophenyl)ethyl)-4-fluoro-2-((1-methylpiperidin-4-yl)amino)-5-(pyridin-4-yl)benzamide], half-maximal inhibition (IC50) was put at 9.8 nM. Still for that read-out and setting: for `C[C@@H](NC(=O)c1cc(N2C3CCCC2COC3)c(F)cc1NC1CCN(C)CC1)c1cccc(C(F)F)c1F` [Example 39, 5-(3-oxa-9-azabicyclo[3.3.1]nonan-9-yl)-N-((R)-1-(3-(difluoromethyl)-2-fluorophenyl)ethyl)-4-fluoro-2-((1-methylpiperidin-4-yl)amino)benzamide] the value was 111 nM; for `Cc1cc(-c2cc(C(=O)N[C@H](C)c3cccc(C(F)F)c3F)c(NC3CCN(C)CC3)cc2F)ccn1` [Example 64, (R)-N-(1-(3-(difluoromethyl)-2-fluorophenyl)ethyl)-4-fluoro-2-((1-methylpiperidin-4-yl)amino)-5-(2-methylpyridin-4-yl)benzamide], 8.3 nM; for `C[C@@H](NC(=O)c1cc(N2CCC2)c(F)cc1N[C@H]1CN2CCC1CC2)c1cccc(C(F)F)c1F` [Example 29, 5-(azetidin-1-yl)-N—((R)-1-(3-(difluoromethyl)-2-fluorophenyl)ethyl)-4-fluoro-2-(((R)-quinuclidin-3-yl)amino)benzamide], 205 nM. The same measure, in the same setting: for `C[C@@H](NC(=O)c1cc(N2CCCC2)c(F)cc1N[C@@H]1CN2CCC1CC2)c1cccc(C(F)F)c1F` [Example 32, N—((R)-1-(3-(difluoromethyl)-2-fluorophenyl)ethyl)-4-fluoro-5-(pyrrolidin-1-yl)-2-(((S)-quinuclidin-3-yl)amino)benzamide] the value was 133 nM; for `C[C@@H](NC(=O)c1cc(C23CC(C2)C3)c(F)cc1NC1CCN(C)CC1)c1cccc(C(F)F)c1F` [Example 68, (R)-5-(bicyclo[1.1.1]pentan-1-yl)-N-(1-(3-(difluoromethyl)-2-fluorophenyl)ethyl)-4-fluoro-2-((1-methylpiperidin-4-yl)amino)benzamide], 138 nM.

In turn, `C[C@@H](NC(=O)c1cc(-c2ccncn2)c(F)cc1NC1CCN(C)CC1)c1cccc(C(F)F)c1F` [Example 66, (R)—N-(1-(3-(difluoromethyl)-2-fluorophenyl)ethyl)-4-fluoro-2-((1-methylpiperidin-4-yl)amino)-5-(pyrimidin-4-yl)benzamide] registered an IC50 of 34.9 nM.

In turn, `C[C@@H](NC(=O)c1cc(-c2ccn(C)c(=O)c2)c(F)cc1NC1CCN(C)CC1)c1cccc(C(F)F)c1F` [Example 60, (R)—N-(1-(3-(difluoromethyl)-2-fluorophenyl)ethyl)-4-fluoro-5-(1-methyl-2-oxo-1,2-dihydropyridin-4-yl)-2-((1-methylpiperidin-4-yl)amino)benzamide] yielded an IC50 of 11 nM.

As to `CC(=O)N1CC2(C1)CN(c1cc(C(=O)N[C@H](C)c3cccc(C(F)(F)F)c3C)c(NC3CCN(C)CC3)cc1F)C2` [Example 20, (R)-5-(6-acetyl-2,6-diazaspiro[3.3]heptan-2-yl)-4-fluoro-N-(1-(2-methyl-3-(trifluoromethyl)phenyl)ethyl)-2-((1-methylpiperidin-4-yl)amino)benzamide], the IC50 was determined as 26.4 nM. Still for that read-out and setting: to `Cc1c([C@@H](C)NC(=O)c2cc(N3CC4(C3)CS(=O)(=O)C4)c(F)cc2NC2CCN(C)CC2)cccc1C(F)(F)F` [Example 8, (R)-5-(2,2-dioxido-2-thia-6-azaspiro[3.3]heptan-6-yl)-4-fluoro-N-(1-(2-methyl-3-(trifluoromethyl)phenyl)ethyl)-2-((1-methylpiperidin-4-yl)amino)benzamide] belongs 74.5 nM; to `C[C@@H](NC(=O)c1cc(N2CCOCC2)c(F)cc1NC1CCNCC1)c1cccc(C(F)F)c1F` [Example 14, (R)—N-(1-(3-(difluoromethyl)-2-fluorophenyl)ethyl)-4-fluoro-5-morpholino-2-(piperidin-4-ylamino)benzamide], 21.7 nM.

`COC(=O)c1ccc(NC2CCN(C)CC2)c(C(=O)N[C@H](C)c2cccc(C(F)F)c2F)c1` [Example 78, methyl (R)-3-((1-(3-(difluoromethyl)-2-fluorophenyl)ethyl)carbamoyl)-4-((1-methylpiperidin-4-yl)amino)benzoate] registered an IC50 of 230 nM.
